Columns and labels:
M. immunogenum group = assay: MIC (CLSI broth dilution), RGM isolates; format: cell-based; conditions: M. immunogenum
M. smegmatis group = assay: MIC (CLSI broth dilution), RGM isolates; format: cell-based; conditions: Mycolicibacterium smegmatis
M. fortuitum group = assay: MIC (CLSI broth dilution), RGM isolates; format: cell-based; conditions: Mycolicibacterium fortuitum
Mycobacterium chelonae = assay: MIC by broth microdilution in CAMHB, clinical isolates; format: cell-based
Mycobacterium abscessus = assay: as above; format: cell-based; conditions: Mycobacteroides abscessus
Mycobacterium fortuitum = assay: as above; format: cell-based; conditions: Mycolicibacterium fortuitum
M. chelonae = assay: MIC (CLSI broth dilution), RGM isolates; format: cell-based; conditions: Mycobacteroides chelonae
M. mucogenium group = assay: MIC (CLSI broth dilution), RGM isolates; format: cell-based
M. abscessus complex = assay: MIC (CLSI broth dilution), RGM isolates; format: cell-based; conditions: Mycobacteroides abscessus
[1] = tested on: rapid-growing mycobacteria (RGM) isolates; assay: MIC (CLSI broth dilution), all RGM isolates; format: cell-based, nontuberculous mycobacteria

CN(C)c1cc(NC(=O)CNC(C)(C)C)c(O)c2c1C[C@H]1C[C@H]3[C@H](N(C)C)C(O)=C(C(N)=O)C(=O)[C@@]3(O)C(O)=C1C2=O [Tigecycline, tigecycline]
0.12 µg/mL: MIC (M. immunogenum group; isolate 36, M. immunogenum group) | MIC (M. fortuitum group; isolate 24, M. fortuitum group, M. fortuitum) | MIC (M. chelonae; isolate 18, M. chelonae) | MIC (M. chelonae; isolate 20, M. chelonae) | MIC (M. mucogenium group; isolate 39, M. mucogenicum group, M. mucogenicum) | MIC (M. mucogenium group; isolate 42, M. mucogenicum group, M. mucogenicum) | MIC (M. mucogenium group; isolate 43, M. mucogenicum group, M. phocaicum) | MIC (M. abscessus complex; isolate 1, M. abscessus complex, erm gene type MAB30) | MIC (M. abscessus complex; isolate 2, M. abscessus complex, erm gene type MAB30) | MIC (M. abscessus complex; isolate 6, M. abscessus complex, erm gene type Type 1 abscessus) | MIC (M. abscessus complex; isolate 8, M. abscessus complex, erm gene type Type 1 abscessus) | MIC (M. abscessus complex; isolate 10, M. abscessus complex, erm gene type Type 1 abscessus) | MIC (M. abscessus complex; isolate 12, M. abscessus complex, erm gene type Type 6 abscessus) | MIC (M. abscessus complex; isolate 14, M. abscessus complex, erm gene type Type 6 abscessus) | MIC (M. abscessus complex; isolate 16, M. abscessus complex, erm gene type Type 7 abscessus) | MIC (M. abscessus complex; isolate 17, M. abscessus complex, erm gene type Type 8 abscessus)
0.5 µg/mL: MIC (M. immunogenum group; isolate 35, M. immunogenum group) | MIC (M. immunogenum group; isolate 37, M. immunogenum group) | MIC (M. immunogenum group; isolate 38, M. immunogenum group) | MIC (Mycobacterium abscessus; isolate No. 9, 5785) | MIC (Mycobacterium abscessus; isolate No. 11, 6111) | MIC (Mycobacterium abscessus; isolate No. 12, 6005) | MIC (Mycobacterium fortuitum; isolate No. 14, 7484) | MIC (Mycobacterium fortuitum; isolate No. 20, 2491) | MIC (M. chelonae; isolate 21, M. chelonae)
0.125 µg/mL: MIC (Mycobacterium abscessus; isolate No. 5, BB6) | MIC (Mycobacterium fortuitum; isolate No. 5, 33) | MIC50 [1]
8 µg/mL: MIC (Mycobacterium abscessus; isolate No. 19, 5960)
≤ 0.015 µg/mL: MIC (M. smegmatis group; isolate 49, M. smegmatis group, M. goodii) | MIC (M. fortuitum group; isolate 25, M. fortuitum group, M. fortuitum) | MIC (M. fortuitum group; isolate 26, M. fortuitum group, M. porcinum)
0.06 µg/mL: MIC (M. fortuitum group; isolate 31, M. fortuitum group, M. senegalense) | MIC50 (Mycobacterium chelonae) | MIC (Mycobacterium abscessus; isolate No. 4, BB3) | MIC (Mycobacterium fortuitum; isolate No. 3, 2797) | MIC (Mycobacterium fortuitum; isolate No. 9, 38) | MIC (M. mucogenium group; isolate 40, M. mucogenicum group, M. mucogenicum) | MIC (M. mucogenium group; isolate 41, M. mucogenicum group, M. mucogenicum) | MIC (M. mucogenium group; isolate 44, M. mucogenicum group, M. phocaicum) | MIC (M. mucogenium group; isolate 46, M. mucogenicum group, M. phocaicum) | MIC (M. abscessus complex; isolate 11, M. abscessus complex, erm gene type Type 6 abscessus) | MIC (M. abscessus complex; isolate 15, M. abscessus complex, erm gene type Type 7 abscessus)
1 µg/mL: MIC50 (Mycobacterium abscessus) | MIC (Mycobacterium abscessus; isolate No. 8, 6031) | MIC (Mycobacterium abscessus; isolate No. 16, BB5) | MIC (Mycobacterium abscessus; isolate No. 23, 6025) | MIC (Mycobacterium fortuitum; isolate No. 17, 3442)
0.25 µg/mL: MIC (Mycobacterium abscessus; isolate No. 3, 5922) | MIC50 (Mycobacterium fortuitum) | MIC90 (Mycobacterium fortuitum) | MIC (Mycobacterium fortuitum; isolate No. 1, 3349) | MIC (Mycobacterium fortuitum; isolate No. 4, 32) | MIC (Mycobacterium fortuitum; isolate No. 11, 3480) | MIC (Mycobacterium fortuitum; isolate No. 12, 3126) | MIC (Mycobacterium fortuitum; isolate No. 13, 3579) | MIC (Mycobacterium fortuitum; isolate No. 15, 3488) | MIC (Mycobacterium fortuitum; isolate No. 16, 3276) | MIC (Mycobacterium fortuitum; isolate No. 18, 3316) | MIC (Mycobacterium fortuitum; isolate No. 19, 3490) | MIC (M. chelonae; isolate 19, M. chelonae) | MIC (M. chelonae; isolate 22, M. chelonae) | MIC (M. mucogenium group; isolate 45, M. mucogenicum group, M. phocaicum) | MIC (M. mucogenium group; isolate 47, M. mucogenicum group, M. phocaicum) | MIC (M. abscessus complex; isolate 3, M. abscessus complex, erm gene type MAB30) | MIC (M. abscessus complex; isolate 4, M. abscessus complex, erm gene type massiliense) | MIC (M. abscessus complex; isolate 5, M. abscessus complex, erm gene type massiliense/subsp. abs hybrid) | MIC (M. abscessus complex; isolate 7, M. abscessus complex, erm gene type Type 1 abscessus) | MIC (M. abscessus complex; isolate 9, M. abscessus complex, erm gene type Type 1 abscessus) | MIC (M. abscessus complex; isolate 13, M. abscessus complex, erm gene type Type 6 abscessus) | MIC90 [1]
0.015 µg/mL: MIC (Mycobacterium fortuitum; isolate No. 2, 3499) | MIC (Mycobacterium fortuitum; isolate No. 6, 3489) | MIC (Mycobacterium fortuitum; isolate No. 7, 3491)
2 µg/mL: MIC90 (Mycobacterium abscessus) | MIC (Mycobacterium abscessus; isolate No. 1, BB2) | MIC (Mycobacterium abscessus; isolate No. 2, BB4) | MIC (Mycobacterium abscessus; isolate No. 6, 5908) | MIC (Mycobacterium abscessus; isolate No. 7, BB7)
0.03 µg/mL: MIC (M. smegmatis group; isolate 50, M. smegmatis group, M. wolinskyi) | MIC (M. fortuitum group; isolate 23, M. fortuitum group, M. fortuitum) | MIC (M. fortuitum group; isolate 27, M. fortuitum group, M. porcinum) | MIC (M. fortuitum group; isolate 28, M. fortuitum group, M. porcinum/M. boenickei) | MIC (M. fortuitum group; isolate 29, M. fortuitum group, M. porcinum/M. boenickei) | MIC (M. fortuitum group; isolate 30, M. fortuitum group, M. porcinum/M. boenickei) | MIC (M. fortuitum group; isolate 32, M. fortuitum group, M. senegalense) | MIC (M. fortuitum group; isolate 33, M. fortuitum group, M. senegalense) | MIC (M. fortuitum group; isolate 34, M. fortuitum group, M. senegalense) | MIC (Mycobacterium fortuitum; isolate No. 8, 54) | MIC (Mycobacterium fortuitum; isolate No. 10, 36) | MIC (M. mucogenium group; isolate 48, M. mucogenicum group, M. phocaicum)

Reference: patent publication US20250332178A1, “METHODS OF TREATING MYCOBACTERIAL INFECTIONS USING TETRACYCLINE COMPOUNDS” (priority 2018, published 2025)
